Literature values as cited in publication PMC1976805, “Preclinical pharmacokinetics of benznidazole” (British Journal of Cancer, 1984).
Read-outs that look alike come from different tables or passages of the source.

Key:
[1] = sheep; ref Miller, personal communication; cited from earlier work
[2] = humans; ref Workman, 1980b and 1983; cited from earlier work
[3] = mice; ref Workman, 1980b and 1983; cited from earlier work
[4] = EMT6 flank tumours; ref Workman, 1980b and 1983; cited from earlier work
[5] = spontaneous dog neoplasms; ref Workman, 1980b and 1983; cited from earlier work
plasma proteins = settings: ref Workman, 1980b and 1983; cited from earlier work
[6] = ref Workman, 1980b and 1983, cited from earlier work
[7] = mice; ref Workman, 1980b and 1983; cited from earlier work; remark: listed apart in the source
[8] = large crossbred dogs; ref Workman, 1980b and 1983; cited from earlier work

COCC(O)Cn1ccnc1[N+](=O)[O-] (centres unmarked) [MISO, 1-(2-nitro-imidazol-1-yl)-3-methoxypropan-2-ol]
elimination t1/2 [1]: 0.667 to 1 h | usual average t1/2 [2]: 10 to 12 h | elimination t1/2 [3]: 0.333 to 0.667 h | overall tissue/whole plasma ratio [4]: 87% | steady-state tumour/whole plasma ratio (about) [4]: about 90% | tissue/whole plasma ratio [5]: 61% | appreciable plasma protein binding (plasma proteins): does not occur | peripheral nerve/whole plasma ratio ([6]; dog): 82% | brain/whole plasma ratio ([6]; dogs): 70% | brain/whole plasma ratio [7]: 90% | elimination t1/2 [8]: 4 to 5 h
